Assay results: patent US10782295B2, “Cysteine-reactive ligand discovery in proteomes” (THE SCRIPPS RESEARCH INSTITUTE, priority 2013, dated 2020)

Experiments:
EEF2 = target: T1, EEF2 (Homo sapiens, UniProt P13639); assay: competitive isoTOP-ABPP, MDA-MB-231 soluble proteome; format: binding; settings: 100 μM LDE, 60 min; peptide STLTDSLVC*K
T1 construct: directly in native proteomes; endogenous in cells; host or cells: MDA-MB-231
Protocol: (§1) Here, we envisioned that isoTOP-ABPP could be advanced to discover and quantify reactions between cysteines in proteomes and any electrophilic compound. In this advanced, ‘competitive’ version of isoTOP-ABPP (FIG. 1a), a proteome is treated with an electrophile (experimental sample) or DMSO (control sample). Both proteomic samples are then labeled with the IA probe and conjugated by CuAAC to light and heavy azide-biotin tags, respectively. The light and heavy samples are then mixed and subjected to our described isoTOP-ABPP protocol for enrichment, identification, and quantification of IA-labeled cysteines^30. Electrophile-modified cysteines are quantified by measuring the MS1 chromatographic peak ratios (R values) for heavy (DMSO-treated) over light (electrophile-treated) samples, with higher R values reflecting greater sensitivity to the electrophile. In this format, competitive isoTOP-ABPP can assay electrophiles against 1000+ cysteines in parallel directly in native proteomes without requiring any chemical modification to the electrophiles themselves.
(§2) Competitive isoTOP-ABPP experiments were performed in quadruplicate using the soluble proteome of the human breast cancer cell line MDA-MB-231 cell line. Proteomes were treated with 100 μM HNE, 15d-PGJ2, or 2-HD, for 60 minutes, followed by the IA-probe (100 μM, 60 min) A total of ˜1400 cysteine reactivities were quantified across the aggregate data set, with at least 900 cysteine reactivities quantified for each LDE (FIG. 2a) more than 750 of which were quantified for all the three electrophiles.
(§3) The MDA-MB-231 cell proteome was treated with varying concentrations of HNE (5, 10, 50, 100 and 500 μM) for 60 min and then the IA-labeling profile of each reaction was quantitatively compared to a DMSO-control sample by isoTOP-ABPP.
(§4) HNE was purchased from EMD biosciences, 15d-PGJ2 was purchased from Cayman Chemicals and 2-HD was purchased from Santa Cruz Biotechnology. Proteome samples were diluted to a 4 mg protein/mL solution in PBS. For each profiling experiment, one aliquot of the proteome sample (0.5 mL) was treated with 100 μM of LDE using 5 μL of a 10 mM stock and the other aliquot was treated with 5 μL of either ethanol (for HNE and 15d-PGJ2) or DMSO (for 2-HD) as control. For the concentration-dependent profiling experiments using HNE, aliquots of the proteomes (0.5 mL each) were treated with 5, 10, 50, 100 and 500 μM of HNE using 5 μL of 0.5, 1.0, 5, 10 and 50 mM of stock solution, respectively. After 60 minutes of treatment at room temperature, both the LDE-treated and control aliquots were passed through a NAP-5 Sephadex column (GE healthcare) to remove any unreacted LDE. The volume of each aliquot was increased to 1 mL with the concentration at 2 mg/mL after this step.
(§5) Each of the control and LDE-treated proteome samples (˜2 mg protein/mL in 1 mL volume) was treated with 100 μM of IA-probe using 10 μL of a 10 mM stock in DMSO. The labeling reactions were incubated at room temperature for 1 hour. Click chemistry (acetylene-azide cycloaddition) was performed by the addition of 100 μM of either the Heavy-TEV-Tag (for the control sample) or Light-TEV-Tag (for the LDE-treated sample) (20 μL of a 5 mM stock), 1 mM TCEP (fresh 50× stock in water), 100 μM ligand (17× stock in DMSO:t-Butanol 1:4) and 1 mM CuSO4 (50× stock in water). Samples were allowed to react at room temperature for 1 hour. After the click chemistry step, the light and heavy-labeled samples were mixed together and centrifuged (5900×g, 4 min, 4° C.) to pellet the precipitated proteins.
(§6) The pellets were washed twice in cold MeOH, after which the pellet was solubilized in PBS containing 1.2% SDS via sonication and heating (5 min, 80° C.). Samples were subjected to streptavidin enrichment of probe-labeled proteins, sequential on-bead trypsin and TEV digestion, and liquid chromatography-mass spectrometry (LC-MS) analysis according to the published isoTOP-ABPP protocol^30. […]

RTN4 = target: T2, RTN4 (Homo sapiens, UniProt Q9NQC3); assay: as above; format: binding; settings: 100 μM LDE, 60 min; peptide YSNSALGHVNC*TIK
T2 construct: directly in native proteomes; endogenous in cells; host or cells: MDA-MB-231
T2 sequence (Q9NQC3 1-1192): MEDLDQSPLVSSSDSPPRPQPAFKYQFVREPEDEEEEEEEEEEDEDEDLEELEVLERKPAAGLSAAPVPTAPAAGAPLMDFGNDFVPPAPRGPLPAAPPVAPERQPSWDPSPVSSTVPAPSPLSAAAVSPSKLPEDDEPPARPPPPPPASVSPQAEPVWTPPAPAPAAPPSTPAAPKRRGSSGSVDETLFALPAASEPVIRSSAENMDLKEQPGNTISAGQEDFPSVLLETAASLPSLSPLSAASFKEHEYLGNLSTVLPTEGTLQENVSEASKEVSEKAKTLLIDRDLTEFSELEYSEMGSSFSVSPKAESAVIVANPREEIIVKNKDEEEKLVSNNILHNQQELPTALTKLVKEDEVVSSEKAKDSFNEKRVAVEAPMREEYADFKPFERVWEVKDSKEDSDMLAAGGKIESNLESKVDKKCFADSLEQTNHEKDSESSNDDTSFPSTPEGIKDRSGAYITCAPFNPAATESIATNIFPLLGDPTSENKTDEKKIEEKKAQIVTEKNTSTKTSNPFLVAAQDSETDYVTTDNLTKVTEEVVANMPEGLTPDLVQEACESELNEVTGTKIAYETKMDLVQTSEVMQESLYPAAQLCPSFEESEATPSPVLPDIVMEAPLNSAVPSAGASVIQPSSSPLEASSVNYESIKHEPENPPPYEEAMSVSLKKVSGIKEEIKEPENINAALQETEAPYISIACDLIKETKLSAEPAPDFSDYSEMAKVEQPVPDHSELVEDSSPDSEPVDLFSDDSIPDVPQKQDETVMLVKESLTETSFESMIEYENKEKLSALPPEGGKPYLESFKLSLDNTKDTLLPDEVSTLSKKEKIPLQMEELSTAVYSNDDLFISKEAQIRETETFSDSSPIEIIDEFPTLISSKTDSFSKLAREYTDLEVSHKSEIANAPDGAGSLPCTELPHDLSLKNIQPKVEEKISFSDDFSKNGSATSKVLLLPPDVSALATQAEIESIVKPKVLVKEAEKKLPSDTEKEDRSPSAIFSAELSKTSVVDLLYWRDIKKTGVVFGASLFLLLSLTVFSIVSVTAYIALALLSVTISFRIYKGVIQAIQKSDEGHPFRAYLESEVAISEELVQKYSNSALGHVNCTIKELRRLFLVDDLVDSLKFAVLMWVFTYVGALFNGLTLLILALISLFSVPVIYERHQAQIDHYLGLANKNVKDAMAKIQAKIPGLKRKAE
Protocol: as §1, §2, §3, §4, §5, §6

Row | SMILES | R value (isoTOP-ABPP ratio heavy/light) for IA-labeled cysteine of EEF2 (EEF2) | R value (isoTOP-ABPP ratio heavy/light) for IA-labeled cysteine of RTN4 (RTN4)
1 | CCCCCCCCCCCCC/C=C/C=O [2-HD, 2-trans-hexadecenal] | 1.06 | 1.1
2 | CCCCCC(O)/C=C/C=O (stereo not drawn) [4-HNE, 4-Hydroxynonenal] | 11.63 | 11.78
3 | CCCCC/C=C/C=C1/C(=O)C=C[C@@H]1C/C=C\CCCC(=O)O [PGJ2, 15-deoxy-Δ12,14-prostaglandin J2] | 3.31 | 2.93
